Data set [1] deals with SGC-7901 early differentiation gastric cancer cell. Put plainly: MTT anti-proliferative assay, SGC-7901. Type of data set: cell-based, human. Particulars: for IC50: MTT, 48 h. An outline of the steps: (§1)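 Cell lines plated in 96-well plates and exposed to compounds; anti-proliferative activity determined by MTT read-out as inhibition of net cell growth.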
In general terms: Tetrazolium dyes change colour on reduction, which living cells bring about.

Data set [2] concerns MCF-10A normal breast cell. Put plainly: MTT assay, MCF-10A normal cells. Type of data set: cell-based, human. The note with it: 48 h. An outline of the steps: as §1
A further data set relates to A549 lung cancer cell. Put plainly: MTT anti-proliferative assay, A549. Format: cell-based, human. Particulars: MTT, 48 h. The method in brief: as §1
A further data set deals with HepG2 hepatoma cell. Put plainly: MTT anti-proliferative assay, HepG2. Format: cell-based, human. The note with it: MTT, 48 h, read-out: IC50 HepG-2. An outline of the steps:
as §1

For data set [3], the system named is BEL-7402 liver cancer cell. Kind of data set: MTT anti-proliferative assay, BEL-7402. Format: cell-based, human. The note with it: for IC50: MTT, 48 h. The method in brief:
as §1

The subject of data set [4] is HeLa cervical cancer cell. Put plainly: MTT anti-proliferative assay, HeLa. Type of data set: cell-based, human. The note with it: MTT, 48 h. An outline of the steps: as §1
For data set [5], the system named is Raji B lymphoblastoid cell. Kind of data set: MTT anti-proliferative assay, Raji. Type of data set: cell-based, human. The method in brief:
as §1

The test system of the next data set is MCF-7 breast cancer cell. Kind of data set: MTT anti-proliferative assay, MCF-7. Type of data set: cell-based, human. The note with it: MTT, 48 h. The method in brief:
as §1

Data set [6] deals with MGC-803 late stage differentiation gastric cancer cell. Put plainly: MTT anti-proliferative assay, MGC-803. Type of data set: cell-based, human. The note with it: for IC50: MTT, 48 h. The method in brief:
as §1

Another data set has as its system L-02 normal liver cell. Kind of data set: MTT assay, L-02 normal cells. Type of data set: cell-based, human. The note with it: 48 h. An outline of the steps: as §1
Data set [7] concerns HCT116 colectal cancer cell. Kind of data set: MTT anti-proliferative assay, HCT116. Type of data set: cell-based, human. Particulars: for IC50: MTT, 48 h. An outline of the steps: as §1
The subject of a further data set is AGS gastric cancer cell. Kind of data set: MTT anti-proliferative assay, AGS. Format: cell-based, human. Particulars: for IC50: MTT, 48 h. An outline of the steps: as §1
For data set [8], the system named is diffuse large B-cell lymphoma SU-DHL-10 cell. Kind of data set: MTT anti-proliferative assay, SU-DHL-10. Type of data set: cell-based, human. The method in brief: as §1
[9] abbreviates: Homo sapiens, Raji, MTT, 48 h, read-out: IC50 Raji.
[10] abbreviates: Homo sapiens, SU-DHL10, MTT, 48 h, read-out: IC50 SU-DHL-10.

Data on six compounds can be found in PMC11071649, “Synthesis and Selective Anticancer Activity Evaluation of 2-phenylacrylonitrile Derivatives as Tubulin Inhibitors” (Current Medicinal Chemistry, 2024).

Like-named read-outs stand apart in the source and are kept apart here. Where only a bound is given, the exact number is not on record here.

In general, IC50 refers to the concentration that inhibits the measured activity by half. As a reminder, the melting point is the temperature of the solid-liquid transition. Compound `COc1cc(-n2cc(/C=C(\C#N)c3ccc(OC(F)(F)F)cc3)nn2)cc(OC)c1OC` [Compound 7c] registered a melting point of 170 to 172 °C. The compound further had an IC50 in data set [1] (Homo sapiens, SGC-7901) above 100 µM. The IC50 in data set [2] (Homo sapiens, MCF-10A) was above 100 µM. The IC50 in the data set with A549 lung cancer cell (Homo sapiens, A549) is above 100 µM. The IC50 in the data set with HepG2 hepatoma cell (Homo sapiens, HepG2) was above 100 µM. The compound also displayed an IC50 in [3] (Homo sapiens, Bel-7402) above 100 µM. The compound further returned an IC50 in [4] (Homo sapiens, HeLa) above 100 µM. In data set [5] (setting [9]), the IC50 is above 100 µM. Further, the IC50 in the data set on MCF-7 breast cancer cell (Homo sapiens, MCF7) was above 100 µM. For the same compound, in data set [6] (Homo sapiens, MGC-803), the IC50 was above 100 µM. This compound had an IC50 in the data set on L-02 normal liver cell (Homo sapiens) above 100 µM. Further, the IC50 in [7] (Homo sapiens, HCT-116) was above 100 µM. In the data set on AGS gastric cancer cell (Homo sapiens), this compound came in with an IC50 above 100 µM. Also, in [8] (setting [10]), the IC50 was above 100 µM.
On to `COc1ccc(C(=O)/C=C/c2ccc(/C=C(\C#N)c3ccc(OC(F)(F)F)cc3)cc2)cc1` [Compound 8a], for which the melting point lay within 148 to 150 °C. Moreover, the IC50 in [1] (Homo sapiens, SGC-7901) is above 100 µM. The compound further yielded a half-inhibitory concentration (IC50) in data set [2] (Homo sapiens, MCF-10A) of 11.3 ± 2.3 µM. Also, in the data set with A549 lung cancer cell (Homo sapiens, A549), the IC50 was above 100 µM. In addition, in the data set on HepG2 hepatoma cell (Homo sapiens, HepG2), the IC50 is above 100 µM. This compound also showed an IC50 in data set [3] (Homo sapiens, Bel-7402) of 13.2 ± 2.7 µM. The IC50 in data set [4] (Homo sapiens, HeLa) was above 100 µM. Also, in [5] (setting [9]), the IC50 amounted to 1.2 ± 0.5 µM. In addition, in data set [5] (Homo sapiens, Raji, read-out: IC50 Raji cells), the IC50 was around 1 µM. The compound further had an IC50 in the data set on MCF-7 breast cancer cell (Homo sapiens, MCF7) of 17.6 ± 6.5 µM. The compound also registered an IC50 in data set [6] (Homo sapiens, MGC-803) above 100 µM. Moreover, the IC50 in the data set with L-02 normal liver cell (Homo sapiens) is above 100 µM. This compound also returned an IC50 in data set [7] (Homo sapiens, HCT-116) of 56.3 ± 8.4 µM. In addition, the IC50 in the data set with AGS gastric cancer cell (Homo sapiens) was above 100 µM. Besides, the IC50 in data set [8] (setting [10]) is 1.3 ± 0.1 µM. Moreover, in [8] (Homo sapiens, SU-DHL10, read-out: IC50 SU-DHL-10 cells), the IC50 is around 1 µM.
Consider `N#C/C(=C\c1ccc(/C=C/C(=O)c2ccccc2)cc1)c1ccc(OC(F)(F)F)cc1` [Compound 8b], for which the melting point is 155 to 157 °C. Further, the IC50 in data set [1] (Homo sapiens, SGC-7901) is above 100 µM. In addition, in [2] (Homo sapiens, MCF-10A), the IC50 was above 100 µM. Moreover, the IC50 with A549 lung cancer cell (Homo sapiens, A549) was above 100 µM. In addition, the IC50 in the data set on HepG2 hepatoma cell (Homo sapiens, HepG2) was above 100 µM. In data set [3] (Homo sapiens, Bel-7402), this compound showed an IC50 above 100 µM. The same compound yielded an IC50 in data set [4] (Homo sapiens, HeLa) above 100 µM. Further, in data set [5] (setting [9]), the IC50 was above 100 µM. For the same compound, the IC50 in the data set on MCF-7 breast cancer cell (Homo sapiens, MCF7) was above 100 µM. For the same compound, the IC50 in data set [6] (Homo sapiens, MGC-803) was above 100 µM. Further, the IC50 with L-02 normal liver cell (Homo sapiens) was above 100 µM. Also, the IC50 in data set [7] (Homo sapiens, HCT-116) was above 100 µM. The compound also came in with an IC50 in the data set on AGS gastric cancer cell (Homo sapiens) above 100 µM. Also, the IC50 in data set [8] (setting [10]) is above 100 µM.
With `N#C/C(=C\c1ccc(/C=C/C(=O)c2ccc(F)cc2)cc1)c1ccc(OC(F)(F)F)cc1` [Compound 8c], the “SI (selectivity index), IC50 (L-02)/IC50 (SGC-7901)” value in [1] is given as above 4.5. For the same compound, the IC50 in [1] was 22.2 ± 8.6 µM; in data set [2], 15.8 ± 2.5 µM; in the data set with A549 lung cancer cell, above 100 µM; in the data set with HepG2 hepatoma cell, above 100 µM; in data set [3], 77.4 ± 3 µM; in data set [4] it was above 100 µM. The IC50 was 1 ± 0.2 µM in data set [5] (MTT, 48 h, read-out: IC50 Raji); around 1 µM in data set [5] (read-out: IC50 Raji cells); 67.7 ± 5.4 µM with MCF-7 breast cancer cell; 87.5 ± 0.6 µM in data set [6]; above 100 µM in the data set with L-02 normal liver cell; 22.9 ± 6.2 µM in [7] (read-out: IC50 HCT-116). In addition, the IC50 in the data set on AGS gastric cancer cell was 25.3 ± 7.5 µM; in data set [8] (MTT, 48 h, read-out: IC50 SU-DHL-10) it was 1 ± 0.2 µM; in data set [8] (read-out: IC50 SU-DHL-10 cells) it was around 1 µM. Moreover, the “SI (selectivity index), IC50 (L-02)/IC50 (BEL-7402)” value in data set [3] is given as above 1.2. In addition, the “SI (selectivity index), IC50 (L-02)/IC50 (Raji)” value in [5] is on record as above 99.0. For the same compound, the “SI (selectivity index), IC50 (L-02)/IC50 (MGC-803)” value in data set [6] is above 1.1. Moreover, in data set [7], the “SI (selectivity index), IC50 (L-02)/IC50 (HCT-116)” value is above 4.3. For the same compound, the “SI (selectivity index), IC50 (L-02)/IC50 (AGS)” value in the data set on AGS gastric cancer cell is given as above 3.9. In addition, the “SI (selectivity index), IC50 (L-02)/IC50 (SU-DHL-10)” value in [8] was above 96.1.
In the case of `N#C/C(=C\c1ccc(/C=C/C(=O)c2ccc(Br)cc2)cc1)c1ccc(OC(F)(F)F)cc1` [Compound 8d], the melting point fell in the range of 145 to 147 °C. The compound also came in with an IC50 in [1] (Homo sapiens, SGC-7901) above 100 µM. This compound yielded an IC50 in data set [2] (Homo sapiens, MCF-10A) of 37.3 ± 4.3 µM. Also, the IC50 with A549 lung cancer cell (Homo sapiens, A549) was above 100 µM. Also, the IC50 in the data set on HepG2 hepatoma cell (Homo sapiens, HepG2) is above 100 µM. This compound also yielded an IC50 in data set [3] (Homo sapiens, Bel-7402) above 100 µM. The same compound displayed an IC50 in data set [4] (Homo sapiens, HeLa) above 100 µM. In addition, the “SI (selectivity index), IC50 (L-02)/IC50 (Raji)” value in data set [5] is recorded as above 79.3. Also, the IC50 in data set [5] (setting [9]) amounted to 3 ± 1 µM. Also, in the data set on MCF-7 breast cancer cell (Homo sapiens, MCF7), the midpoint of inhibition, the IC50, lay at 53.1 ± 7.1 µM. For the same compound, the IC50 in data set [6] (Homo sapiens, MGC-803) was above 100 µM. Further, the IC50 with L-02 normal liver cell (Homo sapiens) is above 100 µM. Moreover, in data set [7], the “SI (selectivity index), IC50 (L-02)/IC50 (HCT-116)” value is reported as above 1.7. In [7] (Homo sapiens, HCT-116), this compound yielded an IC50 of 35.3 ± 6.5 µM. This compound had an IC50 in the data set with AGS gastric cancer cell (Homo sapiens) of 31.8 ± 6.1 µM. The “SI (selectivity index), IC50 (L-02)/IC50 (SU-DHL-10)” value in [8] is recorded as above 14.0. Also, in data set [8] (setting [10]), the IC50 is 7.1 ± 2.6 µM.
For the compound `N#C/C(=C\c1cn(Cc2ccccc2)c2ccccc12)c1ccc(OC(F)(F)F)cc1` [Compound 9, (Z)-3-(1-benzyl-1H-indol-3-yl)-2-(4-(trifluoromethoxy)phenyl)acrylonitrile], the melting point was in the range of 118 to 120 °C. This compound gave an IC50 in data set [1] (Homo sapiens, SGC-7901) above 100 µM. In data set [2] (Homo sapiens, MCF-10A), this compound returned an IC50 above 100 µM. Further, the IC50 in the data set with A549 lung cancer cell (Homo sapiens, A549) was above 100 µM. Further, the IC50 in the data set with HepG2 hepatoma cell (Homo sapiens, HepG2) is above 100 µM. This compound also came in with an IC50 in data set [3] (Homo sapiens, Bel-7402) above 100 µM. Moreover, in data set [4] (Homo sapiens, HeLa), the IC50 is above 100 µM. Moreover, in [5] (setting [9]), the IC50 was above 100 µM. Further, in the data set on MCF-7 breast cancer cell (Homo sapiens, MCF7), the IC50 is above 100 µM. Besides, the IC50 in data set [6] (Homo sapiens, MGC-803) was above 100 µM. This compound came in with an IC50 with L-02 normal liver cell (Homo sapiens) above 100 µM. In data set [7] (Homo sapiens, HCT-116), this compound had an IC50 above 100 µM. Further, in the data set with AGS gastric cancer cell (Homo sapiens), the IC50 was above 100 µM. For the same compound, the IC50 in data set [8] (setting [10]) is above 100 µM.
